# Results from PMC6058608, “Cell penetrating peptides: a comparative transport analysis for 474 sequence motifs” (Drug Delivery, 2018).
# Test system: HeLa cells
# Assay: CPP uptake experiment: cellular fluorescence of FAM-labeled CPPs
# Assay type: cell-based, human
# Conditions: FAM not coupled to a CPP; mean value and standard error of two measurements
# Procedure: The human cervix adenocarcinoma cell line HeLa was obtained from I.A.Z. (Munich, Germany). As cell growth medium DMEM/Ham’s F-12 (1:1) supplemented with 2 mM L-glutamine, 10% fetal bovine serum, and 1% penicillin/streptomycin (all Capricorn Scientific, Ebsdorfergrund, Germany, formerly PAA Laboratories) was used, and cells were cultured at 37 °C and 5% CO2. They were passaged before reaching confluence; for the experiments, cells at passages p8–p20 were used. For testing uptake efficiency and cytotoxicity of CPPs, cells were seeded in 96-well µ-plates (ibidi, Munich, Germany) at a concentration of 6 × 10^4 cells per well and incubated for 48 h to reach confluence before performing the experiments.
# All solutions used were warmed to 37 °C, with CPP incubation performed at 37 °C and 5% CO2. CPP working solutions were prepared in 96-well polypropylene plates (Corning, Amsterdam, Netherlands) directly before incubation by diluting the 50 µM FAM-labeled CPP stock solutions to 10 µM with cell growth medium. The confluent HeLa cells in the 96-well µ-plates were exposed to 100 µl of a 10 µM CPP working solution per well for 90 min. Cell growth medium served as negative control. After incubation, the cells were washed twice with 300 µl of CM-PBS (PAA Laboratories), then 100 µl CM-PBS was added before determining fluorescence intensities in a plate reader (SpectraMax M5, Molecular Devices, Sunnyvale, CA) at an excitation wavelength of 495 nm and an emission wavelength of 530 nm. Transmission images of the treated cell layers were taken using a MORE microscope (TILL Photonics, Munich, Germany) equipped with a 10×/0.45 objective (Zeiss, Jena, Germany), an FITC filterset (ET480_40x/ET535_50 m/T510LPXRXT, Chroma, Rockingham, NC) and LED and oligochrome light source (FEI). Images were acquired using a Stingray F-145B CCD camera (Allied Vision Tech., Stadtroda, Germany) via live acquisition software (v2.2.2, FEI).
row,Substance,Uptake of FAM without CPP into the HeLa layer [RFU]
1,"5(6)-carboxyfluorescein [FAM, reference compound]",14.3 ± 8.1

# Same assay, conditions: HeLa cells after incubation with 10 µM FAM-labeled CPP, 90 min, 37 °C; mean of two experiments (Table 1)
row,Substance,Fluorescence (RFU)
1,CWKKKKKKKKKKKKKKKKKK [compound 429],417.94
2,GLFKALLKLLKSLWKLLLKA [compound 431],326.66
3,GLWRALWRALRSLWKLKRKV [compound 425],384.64
4,GLWRALWRGLRSLWKKKRKV [compound 427],375.17
5,GLWRALWRGLRSLWKLKRKV [compound 426],347.66
6,KALAKALAKLWKALAKAA [compound 373],345.58
7,"KKKKKKKKKKKKKKKKKKK [compound 412, designed model peptide, FAM-labeled CPP]",632.01
8,KLAAALLKKWKKLAAALL [compound 375],335.89
9,"KLALKLALKALKAALK [compound 296, designed model peptide, FAM-labeled CPP]",478.40
10,KLALKLALKALKAALKLA [compound 405],440.41
11,KLALKLALKAWKAALKLA [compound 372],309.34
12,"KTVLLRKLLKLLVRKI [compound 342, designed model peptide, FAM-labeled CPP]",855.56
13,LIRLWSHLIHIWFQNRRLKWKKK [compound 466],425.60
14,LLKKRKVVRLIKFLLK [compound 343],435.30
15,LNSAGYLLGKINLKALAALAKKIL [compound 473],422.13
16,PKKKRKVALWKTLLKKVLKA [compound 415],390.81
17,RQARRNRRRALWKTLLKKVLKA [compound 446],450.97
18,"VKRKKKPALWKTLLKKVLKA [compound 416, CPP derived from the antimicrobial peptide dermaseptin S4 attached to a nuclear localization signal, FAM-labeled]",925.42
19,WLRRIKAWLRRIKALNRQLGVAA [compound 471],1011.42
20,YTAIAWVKAFIRKLRK [compound 351],401.31
